From patent publication US20250115926A1, “DEREGULATED DHS AND TYRA ENZYMES OF GRASSES ENABLE EFFICIENT PRODUCTION OF BOTH TYROSINE AND PHENYLALANINE” (Wisconsin Alumni Research Foundation, priority 2023, published 2025)

What was measured:
[1] = target: Brachypodium distachyon BdDHS1a, SEQ ID NO: 1, recombinant (Brachypodium distachyon, UniProt I1GSB3); test: DHS activity: kinetics and effector inhibition
Text: (§1) To examine their functional properties, the recombinant DHS enzymes of Brachypodium were produced and characterized in vitro.
(§2) As recent studies have shown that plant DHS enzymes are feedback-inhibited by multiple effector molecules^15, 16, we tested the effect of AAAs and another 14 related metabolites, including various intermediates of the shikimate pathway and the pathways downstream of AAAs, on Brachypodium DHS enzymes.
(§3) The DHS assay for UHPLC-MS quantification was set up using the same settings as described in the previous paragraph for the UV-based DHS assay, which guaranteed at least 10 minutes of reaction linearity. After a 10-minute incubation, 20 μL of the reactions (out of a total volume of 50 μL) were mixed into 80 μL of methanol, vortexed and transferred to vials for injection. Analysis of DAHP by UHPLC-MS was conducted using the same chromatographic settings as described for the UHPLC-MS analysis of soluble metabolites and compared with an authentic DAHP standard (Sta. Cruz biotechnology, cat. no. sc-216432).

[2] = target: Brachypodium distachyon BdDHS2, SEQ ID NO: 5, recombinant (Brachypodium distachyon, UniProt I1I809); test: DHS activity: kinetics and effector inhibition; assay type: biochemical
Text: as §1, §2, §3

[3] = target: Brachypodium distachyon BdDHS1b, SEQ ID NO: 3, recombinant (Brachypodium distachyon, UniProt I1H4W3); test: DHS activity: kinetics and effector inhibition; assay type: biochemical
Text: as §1, §2, §3

grass DHS enzymes = test: DHS activity: effector inhibition; assay type: biochemical; settings: 0.5 mM (FIGS. 4, 15, 17)
Experimental: as §2, §3

[4] = test system: recombinant Sorghum DHS enzymes; test: DHS activity: effector inhibition; assay type: biochemical, Sorghum bicolor; settings: 0.5 mM (FIG. 17)
Experimental: (§4) In contrast, BdDHS1b was not inhibited by arogenate even up to 2.5 mM. In fact, DHS1b activity increased in the presence of high concentrations of arogenate (FIG. 4F), likely due to high concentrations of contaminant NaCl present in the arogenate preparation (FIG. 16). Under acidic conditions, arogenate is known to undergo a spontaneous dehydration and decarboxylation into […]. […] Like in Brachypodium DHS enzymes, 0.5 mM arogenate inhibited SbDHS1a and SbDHS2 at ˜50% and ˜40%, respectively, but had no effect on SbDHS1b.

[5] = target: T1, Sorghum bicolor SbDHS2, SEQ ID NO: 13, recombinant (Sorghum bicolor, UniProt C5YJQ4); test: DHS activity: effector inhibition; assay type: biochemical; settings: effector 0.5 mM
T1 construct: pET28a (NdeI/BamHI), E. coli KRX
Experimental: as §4

[6] = target: T2, Sorghum bicolor SbDHSnc, SEQ ID NO: 15, recombinant (Sorghum bicolor, UniProt C5WRG8); test: DHS activity: effector inhibition; assay type: biochemical; settings: effector 0.5 mM
T2 construct: synthesized into pET28a, E. coli KRX
Experimental: as §4

[7] = test system: Nicotiana benthamiana leaves; test: Transient expression of Brachypodium DHS in Nicotiana benthamiana leaves (AtRbcS3B promoter), UHPLC-MS; assay type: in vivo; settings: three days after transient expression
Experimental: Agrobacterium tumefaciens strain GV3101 transformed with the plant expression constructs were grown at 28° C. for 24 to 36 hours in 10 mL of LB liquid media containing the corresponding antibiotics. The saturated cultures were spun down at 3,000 g for 5 minutes at room temperature and washed twice with 3 mL of induction media (IM; 10 mM MES [2-(N-morpholino) ethanesulfonic acid] buffer pH 5.6, 0.5% glucose, 2 mM NaH2PO4, 20 mM NH4Cl, 1 mM MgSO4, 2 mM KCl, 0.1 mM CaCl2), 0.01 mM FeSO4, and 0.2 mM acetosyringone). After washing, bacteria cultures were incubated in IM for 2 to 3 hours at room temperature in the dark, pelleted at 3000 g for 5 minutes, and resuspended into 3 mL of 10 mM MES buffer pH 5.6 with 0.2 mM acetosyringone. OD600nm was adjusted to a final density of 0.25 units for pAGM4673::TyrA (FIG. 3F) and pICH47822::DHS (FIG. 5A) infiltration, or 0.5 units for pAGM4673::TyrA-DHS co-expression constructs (FIG. 5B) using 10 mM MES buffer pH 5.6 with 0.2 mM acetosyringone. For infiltration of pICH47822::DHS constructs, the Agrobacterium suspensions were adjusted to OD600nm=0.5 and mixed with an equal volume of a suspension of an Agrobacterium clone transformed with pICH4780::p19 under control of the Arabidopsis ubiquitin ligase promoter adjusted to OD600nm=0.5, resulting in a final mixture of 0.25 OD600nm units for each construct. […] Nicotiana benthamiana plants of around 4-weeks-old were infiltrated close to the end of the light period into four different spots per plant, distributed into two leaves at two infiltrations per leaf, with each individual spot corresponding with a different construct/treatment. In total, each construct was infiltrated as 5 or 6 independent replicates into different plants following a randomized pattern. Samples consisting of the infiltrated leaf limbs, without the main veins, were harvested at ˜72 hours post infiltration and subjected to HPLC or UHPLC-MS analysis (see details below).
Around 30-40 mg of pulverized frozen plant tissue were resuspended into 400 μL of chloroform:methanol (1:2) for ˜1 hour with regular vortexing, followed by centrifugation at 20,000 g for 5 minutes at room temperature. The whole supernatant was transferred to a fresh tube, mixed with 125 μL of chloroform, 300 μL of water, and spun down at 15,000 g for 5 minutes for phase separation. The upper, aqueous phase was recovered and dried down for 4 hours to overnight in a speed-vac at 40° C. The dried pellets were resuspended into 100 μL of methanol 80%, spun down at 20,000 g for 5 minutes, and the supernatant transferred to vials for injection. All reagents used for the extraction were UHPLC-MS grade.
Aromatic amino acids and shikimate were detected using a Vanquish Horizon Binary UHPLC (Thermo Scientific) coupled to a Q Exactive mass spectrometer (Thermo Scientific). Two microliters of the sample were analyzed using a InfinityLab Poroshell 120 HILIC-Z column (150×2.1 mm, 2.7-μm particle size; Agilent) in a gradient of 5 mM ammonium acetate/0.2% acetic acid buffer in water (solvent A) and 5 mM ammonium acetate/0.2% acetic acid buffer in 95% acetonitrile (solvent B) at a flow rate of 0.45 mL/min and column temperature of 40° C. The phase B gradient was: 0-2 min, 94%; 2-9 min, 94-88%; 9-19 min, 88-71%; 19-20 min, 71-20%, 20-21.5 min, 20%; 21.5-22 min, 20-94%; 22-25 min, 94%. All chemicals used to prepare the mobile phases were LC-MS grade. Full MS spectra were recorded between 2 and 19 minutes using full scan in negative mode, under the following parameters: sheath gas flow rate, 55; auxiliary gas flow rate, 20; sweep gas flow rate, 2; spray voltage, 3 kV; capillary temperature, 400° C.; S-lens RF level, 50; resolution, 70,000; AGC target 3×10^6, maximum scan time 100 ms; scan range 70-1050 m/z. Spectral data were integrated manually using Xcalibur 3.0. For ^13C labeled plant samples, ^13C-isotopologues were detected based on a mass increase of 1.00335 atomic mass units for each ^13C atom. […]

[8] = DHS activity with combinations of effectors; assay type: biochemical; settings: 0.15 mM each effector (FIG. 19)
Experimental: DHS effector molecules can have synergistic effects when combined in vitro^51. To explore this possibility, we tested the impact of different combinations of tryptophan, tyrosine, arogenate and chorismate, at 0.15 mM each, on the activity of Brachypodium DHS enzymes.

[9] = DHS inhibition by arogenate; assay type: biochemical; settings: FIG. 18
Experimental: as §3

[10] = DHS inhibition by tryptophan; assay type: biochemical; settings: FIG. 18
Experimental: as §3

[11] = test system: Nicotiana benthamiana leaves; test: Transient expression of DHS1b orthologs in Nicotiana benthamiana leaves, LCMS (FIG. 21); assay type: in vivo; settings: 72 hours post-infiltration; for effect on levels of aromatic amino acids and their precursor molecules: vs YPet
Text: To determine whether the grass DHS1b gene encodes a deregulated DHS in other grass species besides Brachypodium distachyon, BdDHS1b orthologs from Oryza sativa (OsDHS1b) and Sorghum bicolor (SbDHS1b) were cloned into the Golden Gate plant expression vector pICH47822 under control of the RuBisCO small subunit 3B promoter from Arabidopsis thaliana.^52 A 3× human influenza hemagglutinin tag was fused in frame to the C-terminus of the DHS genes to confirm the production of heterologous DHS protein.
Agrobacterium tumefaciens (strain GV3101) clones transformed with the OsDHS1b and SbDHS1b plant expression constructs were infiltrated into the leaves of Nicotiana benthamiana side-by-side with Agrobacterium clones expressing BdDHS1a, BdDHS1b, and the fluorescent protein YPet (negative control). The levels of phenylalanine, tyrosine, tryptophan, and three of their biosynthetic intermediates (shikimate, prephenate, and arogenate) were determined at 72 hours post-infiltration by liquid chromatography coupled to mass spectrometry (LCMS). […] On average, expression of BdDHS1b or OsDHS1b increased phenylalanine, tyrosine, and shikimate levels by 5 to 20-times compared to the YPet negative control (FIG. 21), whereas prephenate and arogenate rose to ˜100-times the control (FIG. 21). […] Based on these findings, BdDHS1b and OsDHS1b, but not SbDHS1b, encode DHS enzymes that can boost the accumulation of aromatic amino acids in planta upon heterologous expression.

Sequence of Brachypodium distachyon BdDHS1b, SEQ ID NO: 3, recombinant (I1H4W3 37-542): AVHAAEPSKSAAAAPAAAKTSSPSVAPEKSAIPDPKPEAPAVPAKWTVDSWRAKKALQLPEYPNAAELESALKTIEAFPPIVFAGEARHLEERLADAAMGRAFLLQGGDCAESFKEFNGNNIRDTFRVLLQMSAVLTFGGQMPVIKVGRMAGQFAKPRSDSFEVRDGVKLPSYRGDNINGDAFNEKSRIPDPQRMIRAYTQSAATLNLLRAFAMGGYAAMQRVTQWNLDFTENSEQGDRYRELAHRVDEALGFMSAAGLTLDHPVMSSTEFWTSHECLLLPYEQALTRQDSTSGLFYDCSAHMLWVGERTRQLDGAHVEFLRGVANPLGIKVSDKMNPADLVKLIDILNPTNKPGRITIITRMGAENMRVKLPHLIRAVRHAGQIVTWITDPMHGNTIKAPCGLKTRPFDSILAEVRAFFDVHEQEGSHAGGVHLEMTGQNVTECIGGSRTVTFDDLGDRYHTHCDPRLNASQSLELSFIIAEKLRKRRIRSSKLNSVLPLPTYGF
Sequence of Brachypodium distachyon BdDHS1a, SEQ ID NO: 1, recombinant (I1GSB3 46-537): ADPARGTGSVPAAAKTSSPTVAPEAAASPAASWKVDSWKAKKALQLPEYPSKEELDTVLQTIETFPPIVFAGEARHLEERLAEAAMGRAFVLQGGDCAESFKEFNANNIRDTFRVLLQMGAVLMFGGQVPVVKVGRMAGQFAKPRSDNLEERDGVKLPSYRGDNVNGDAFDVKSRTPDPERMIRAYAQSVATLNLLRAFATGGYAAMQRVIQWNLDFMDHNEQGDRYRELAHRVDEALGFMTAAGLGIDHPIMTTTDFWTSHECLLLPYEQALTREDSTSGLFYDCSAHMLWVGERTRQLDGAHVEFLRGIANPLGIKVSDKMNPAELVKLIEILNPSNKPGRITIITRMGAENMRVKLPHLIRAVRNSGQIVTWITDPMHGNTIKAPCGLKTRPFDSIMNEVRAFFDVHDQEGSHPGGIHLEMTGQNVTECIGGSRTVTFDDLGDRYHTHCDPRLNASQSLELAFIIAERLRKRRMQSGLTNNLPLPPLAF
Sequence of Brachypodium distachyon BdDHS2, SEQ ID NO: 5, recombinant (I1I809 31-503): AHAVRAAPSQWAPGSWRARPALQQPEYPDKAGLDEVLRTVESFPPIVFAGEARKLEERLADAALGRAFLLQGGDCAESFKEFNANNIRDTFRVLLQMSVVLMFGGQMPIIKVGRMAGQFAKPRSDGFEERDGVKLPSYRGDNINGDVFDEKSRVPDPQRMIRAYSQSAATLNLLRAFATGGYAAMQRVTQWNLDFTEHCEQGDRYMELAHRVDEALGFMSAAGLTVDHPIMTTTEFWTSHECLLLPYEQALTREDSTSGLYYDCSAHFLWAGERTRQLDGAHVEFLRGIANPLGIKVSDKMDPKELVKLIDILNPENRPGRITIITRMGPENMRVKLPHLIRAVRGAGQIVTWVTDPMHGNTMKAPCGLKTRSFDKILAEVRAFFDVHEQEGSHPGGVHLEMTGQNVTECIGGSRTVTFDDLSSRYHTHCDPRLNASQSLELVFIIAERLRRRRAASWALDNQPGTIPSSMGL
T1 sequence (C5YJQ4 42-508): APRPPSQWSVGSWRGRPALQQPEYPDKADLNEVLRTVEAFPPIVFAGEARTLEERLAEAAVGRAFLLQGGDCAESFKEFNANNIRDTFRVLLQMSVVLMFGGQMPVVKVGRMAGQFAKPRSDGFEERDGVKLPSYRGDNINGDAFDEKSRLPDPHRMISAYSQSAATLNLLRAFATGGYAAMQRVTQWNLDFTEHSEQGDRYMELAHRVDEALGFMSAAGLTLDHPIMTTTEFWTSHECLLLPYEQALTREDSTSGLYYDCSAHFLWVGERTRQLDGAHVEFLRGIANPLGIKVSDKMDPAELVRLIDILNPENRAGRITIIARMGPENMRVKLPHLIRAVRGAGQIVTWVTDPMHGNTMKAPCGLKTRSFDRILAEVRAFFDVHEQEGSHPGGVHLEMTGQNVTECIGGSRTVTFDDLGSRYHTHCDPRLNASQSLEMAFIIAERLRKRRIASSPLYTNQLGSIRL
T2 sequence (C5WRG8 36-499): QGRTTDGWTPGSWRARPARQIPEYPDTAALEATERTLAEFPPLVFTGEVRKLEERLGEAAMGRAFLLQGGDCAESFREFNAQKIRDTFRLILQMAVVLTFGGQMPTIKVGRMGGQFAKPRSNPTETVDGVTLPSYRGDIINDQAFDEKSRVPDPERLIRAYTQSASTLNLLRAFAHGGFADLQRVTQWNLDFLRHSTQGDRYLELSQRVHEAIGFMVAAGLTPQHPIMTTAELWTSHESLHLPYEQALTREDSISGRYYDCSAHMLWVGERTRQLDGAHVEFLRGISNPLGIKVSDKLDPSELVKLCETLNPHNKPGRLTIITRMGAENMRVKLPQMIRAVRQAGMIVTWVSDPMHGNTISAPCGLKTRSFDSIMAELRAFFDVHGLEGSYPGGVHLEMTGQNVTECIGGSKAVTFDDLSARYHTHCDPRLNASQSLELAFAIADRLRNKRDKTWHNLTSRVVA

O=C[C@H](O)[C@H](O)COP(=O)(O)O [E4P, erythrose 4-phosphate]
H Coefficient (only E4P) ([1]; 1.5 mM PEP): 1.8
H Coefficient (only E4P) ([2]; 1.5 mM PEP): 1.5
kcat/EC50 (E4P) [3]: 28300 M⁻¹ s⁻¹
H Coefficient (only E4P) ([3]; 1.5 mM PEP): 2.1
Km ([3]; 1.5 mM PEP, 37° C., read-out: EC50 (E4P) (K0.5)): 400 µM

O=C(O)/C=C/c1ccc(O)c(O)c1 [caffeic acid]
effect on grass DHS at 0.5 mM (grass DHS enzymes): little effect

C=C(O[C@@H]1C=C(C(=O)O)C=C[C@H]1O)C(=O)O [chorismate]
effect on grass DHS at 0.5 mM (grass DHS enzymes): little effect

O=C(O)Cc1cc(O)ccc1O [homogentisic acid]
effect on grass DHS at 0.5 mM (grass DHS enzymes): little effect

N[C@@H](Cc1ccccc1)C(=O)O [phenylalanine]
inhibition at 0.5 mM [4]: no strong inhibition
effect on grass DHS at 0.5 mM (grass DHS enzymes): did not cause significant effects

N[C@@H](Cc1c[nH]c2ccccc12)C(=O)O [tryptophan]
inhibition at 500 µM [5]: 40 to 50%
inhibition at 500 µM [6]: 40 to 50%
effect of tryptophan ([1]; 0.5 mM (FIG. 4C)): no effect
IC50 ([1]; IC50 (tryptophan), 1.5 mM PEP, 2 mM E4P): > 500 µM
IC50 ([2]; 1.5 mM PEP, 2 mM E4P, read-out: IC50 (tryptophan)): 120 µM
mode of inhibition with respect to E4P ([2]; FIG. 18): uncompetitive inhibition kinetics
mode of inhibition with respect to PEP ([2]; FIG. 18): non-competitive inhibition
effect of tryptophan ([3]; 0.5 mM (FIG. 4C)): no effect
IC50 ([3]; read-out: IC50 (tryptophan)): > 500 µM

BdDHS1a: DHS1a enzyme of Brachypodium distachyon, SEQ ID NO: 1
phenylalanine accumulation compared to tdTomato control [7]: did not significantly alter
shikimate accumulation compared to tdTomato control [7]: did not significantly alter
tryptophan accumulation compared to tdTomato control [7]: did not significantly alter
tyrosine accumulation compared to tdTomato control [7]: did not significantly alter
impact of effector combinations on DHS activity [8]: additional inhibition

BdDHS2: DHS2 enzyme of Brachypodium distachyon, SEQ ID NO: 5
inhibition mechanism of arogenate for PEP [9]: mixed inhibition
inhibition mechanism of arogenate in respect to E4P [9]: uncompetitive inhibition
phenylalanine accumulation compared to tdTomato control [7]: did not significantly alter
shikimate accumulation compared to tdTomato control [7]: did not significantly alter
tryptophan accumulation compared to tdTomato control [7]: did not significantly alter
tyrosine accumulation compared to tdTomato control [7]: did not significantly alter
impact of effector combinations on DHS activity [8]: additional inhibition
inhibition mechanism of tryptophan in respect to E4P [10]: uncompetitive inhibition

OsDHS1b: DHS1b enzyme of Oryza sativa, SEQ ID NO: 19
prephenate and arogenate relative to the control [11]: ~100 times
effect on levels of aromatic amino acids and their precursor molecules [11]: increased levels of all measured metabolites except for tryptophan

SbDHS1b: DHS1b enzyme of Sorghum bicolor, SEQ ID NO: 11
effect on levels of aromatic amino acids and their precursor molecules [11]: little or no significant effect
